Assay results from ChEMBL document CHEMBL1201862, “PubChem BioAssay data set” (2004).
The source made the active and inactive calls.

Tests used:
[1] = viability loss in MITF-independent A375 cells – cell-based, CellTiter-Glo luminescence, dry powder, set 6, counter-screen for MITF inhibitor project, dose response (AID 624488); assay type: functional; settings: A-375
[2] = growth inhibition of MALME3 cells – cell-based, CellTiter-Glo luminescence, dry powder, set 5, orthogonal assay for MITF inhibitor project, dose response (AID 651584); assay type: functional; settings: MALME-3
[3] = MITF Measured in Cell-Based System Using Plate Reader - 2084-01_Inhibitor_Dose_DryPowder_Activity_Set7.; assay type: functional
[4] = MITF Orthogonal Assay: MALME3 CTG Assay Measured in Cell-Based System Using Plate Reader - 2084-04_Inhibitor_Dose_DryPowder_Activity_Set6.; assay type: functional; settings: MALME-3
[5] = MITF Orthogonal Assay: SK-MEL-5 CTG Assay Measured in Cell-Based System Using Plate Reader - 2084-02_Inhibitor_Dose_DryPowder_Activity_Set5.; assay type: functional
[6] = cytotoxicity in MITF-independent A375 cells – cell-based, CellTiter-Glo luminescence, dry powder, set 4, counter-screen for MITF inhibitor project, dose response (AID 624364); assay type: functional; settings: A-375;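 also: A375 melanoma cells are MITF independent so this is a counter screen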
[7] = cytotoxicity in melanoma parental cells – cell-based, CellTiter-Glo, dry powder, set 6, MITF inhibitor project, dose response (AID 624429); assay type: functional; settings: SK-MEL-5
[8] = cytotoxicity in MITF-independent A375 cells – cell-based, CellTiter-Glo luminescence, dry powder, set 9, counter-screen for MITF modulator project, dose response (AID 651591); assay type: functional; settings: A-375
[9] = melanocyte viability loss, MITF-dependent cells, cell-based, plate reader, dry powder, cytotoxicity control, dose response (AID 651920); assay type: functional
[10] = MITF Measured in Cell-Based System Using Plate Reader - 2084-01_Inhibitor_Dose_DryPowder_Activity_Set6.; assay type: functional
[11] = viability loss in MITF-independent A375 cells – cell-based, CellTiter-Glo luminescence, dry powder, set 7, counter-screen for MITF inhibitor project, dose response (AID 624490); assay type: functional; settings: A-375
[12] = growth inhibition of SK-MEL-5 melanoma cells – cell-based, CellTiter-Glo luminescence, dry powder, set 8, orthogonal assay for MITF inhibitor project, dose response (AID 651586); assay type: functional
[13] = inhibitors of TRPM1-promoter reporter in SK-MEL-5 – cell-based, luciferase, dry powder, set 9, MITF inhibitor project, dose response (AID 651588); assay type: functional
[14] = biological target: RNA-editing ligase 1, mitochondrial (Trypanosoma brucei brucei, UniProt P86926); assay: inhibition of trypanosome RNA editing ligase – biochemical, fluorescence, Trypanosoma brucei, dose response (AID 1117295); assay type: functional
[15] = biological target: E3 ubiquitin-protein ligase UHRF1 (Homo sapiens, UniProt Q96T88); assay: Counterscreen for inhibitors of 5-meCpG-binding domain protein 2 (MBD2): TRFRET-based biochemical high throughput dose response assay to identify inhibitors of binding of ubiquitin-like with PHD and ring finger domains 1 (UHRF1) to methylated oligonucleotide.
[16] = fluconazole-exposed Candida albicans growth modulators – fluorescence, retest, confirmation (AID 2467); assay type: functional, cell-based
[17] = NIH-3T3 fibroblast cytotoxicity, dose response, cytotoxicity control, cell-based, fluorescence, Alamar Blue, secondary assay (AID 2327); assay type: functional;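 also: NIH-3T3 mouse fibroblasts cultured with fluconazole at 8 µg/mL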
[18] = biological target: T1, Low molecular weight phosphotyrosine protein phosphatase (Homo sapiens, UniProt P24666); assay: inhibition of human LMPTP enzyme activity – biochemical, absorbance, pNPP substrate, LMPTP-A isoform, set 2, orthogonal assay, dose response (AID 743308); assay type: functional
T1 sequence (P24666 whole entry): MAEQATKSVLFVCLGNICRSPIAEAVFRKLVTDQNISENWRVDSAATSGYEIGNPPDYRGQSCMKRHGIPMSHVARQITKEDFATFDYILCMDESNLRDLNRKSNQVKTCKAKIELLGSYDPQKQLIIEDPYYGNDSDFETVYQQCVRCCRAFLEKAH

[19] = biological target: T1, Low molecular weight phosphotyrosine protein phosphatase; assay: inhibition of LMPTP-A enzymatic activity – biochemical, OMFP substrate, fluorescence intensity, set 2, dose response (AID 743307); assay type: functional
Kallikrein-7 = Kallikrein-7 (Homo sapiens, UniProt P49862); assay: Fluorescence Intensity-based biochemical primary high throughput dose response assay to identify activators of kallikrein-7 (K7) zymogen.
CAAX prenyl protease 2 [20] = biological target: T2, CAAX prenyl protease 2 (Homo sapiens, UniProt Q9Y256); assay: inhibition of Ras-converting CAAX protease Rce1 – biochemical, yeast membranes, quenched-peptide fluorescence, cherry-pick, dose response (AID 588849)
T2 sequence (Q9Y256 whole entry): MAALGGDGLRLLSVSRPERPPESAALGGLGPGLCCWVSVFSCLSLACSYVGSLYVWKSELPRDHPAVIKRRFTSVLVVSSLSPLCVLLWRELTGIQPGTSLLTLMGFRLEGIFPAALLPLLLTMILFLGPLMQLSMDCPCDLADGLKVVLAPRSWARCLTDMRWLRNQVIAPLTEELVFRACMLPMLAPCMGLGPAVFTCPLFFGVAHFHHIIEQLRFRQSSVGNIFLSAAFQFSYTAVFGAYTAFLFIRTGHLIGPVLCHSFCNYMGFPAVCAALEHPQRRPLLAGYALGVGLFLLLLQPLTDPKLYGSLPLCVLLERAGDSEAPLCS

Trypsin = Trypsin (Sus scrofa, UniProt P00761); assay: trypsin protease activity blockade – biochemical, quenched peptide fluorescence, cherry-pick, selectivity assay for Rce1 protease inhibitor project, dose response (AID 488789)
CAAX prenyl protease 2 [21] = biological target: T3, CAAX prenyl protease 2 (Saccharomyces cerevisiae S288c, UniProt Q03530); assay type: biochemical
T3 sequence (Q03530 whole entry): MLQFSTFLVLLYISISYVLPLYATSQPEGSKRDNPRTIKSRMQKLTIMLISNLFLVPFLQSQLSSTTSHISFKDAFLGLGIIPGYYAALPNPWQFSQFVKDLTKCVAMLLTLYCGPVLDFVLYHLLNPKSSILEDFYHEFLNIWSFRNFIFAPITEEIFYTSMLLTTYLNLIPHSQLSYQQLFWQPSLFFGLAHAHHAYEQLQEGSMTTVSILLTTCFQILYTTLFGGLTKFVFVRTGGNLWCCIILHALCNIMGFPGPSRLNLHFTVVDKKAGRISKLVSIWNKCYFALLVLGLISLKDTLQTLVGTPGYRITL

Protein Tat = Protein Tat (Human immunodeficiency virus type 1 group M subtype B (isolate HXB2)(HIV-1), UniProt P04608); assay type: functional;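 also: tat binding to TAR RNA read out by fluorescence polarization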
[22] = antimalarial activity against Dd2 parasites – SYBR Green fluorescence, erythrocytes, dry powder, set 2, dose response (AID 1159574); assay type: functional, cell-based

Kallikrein-7, sequence (P49862 whole entry): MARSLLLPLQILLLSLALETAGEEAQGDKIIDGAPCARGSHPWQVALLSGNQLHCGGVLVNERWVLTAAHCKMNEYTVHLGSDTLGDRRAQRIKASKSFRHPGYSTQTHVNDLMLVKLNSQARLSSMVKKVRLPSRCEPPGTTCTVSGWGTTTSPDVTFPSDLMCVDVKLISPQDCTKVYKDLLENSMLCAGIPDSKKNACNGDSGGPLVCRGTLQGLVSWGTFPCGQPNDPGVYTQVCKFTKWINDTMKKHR
RNA-editing ligase 1, mitochondrial, sequence (P86926 whole entry, the tested form may be a part): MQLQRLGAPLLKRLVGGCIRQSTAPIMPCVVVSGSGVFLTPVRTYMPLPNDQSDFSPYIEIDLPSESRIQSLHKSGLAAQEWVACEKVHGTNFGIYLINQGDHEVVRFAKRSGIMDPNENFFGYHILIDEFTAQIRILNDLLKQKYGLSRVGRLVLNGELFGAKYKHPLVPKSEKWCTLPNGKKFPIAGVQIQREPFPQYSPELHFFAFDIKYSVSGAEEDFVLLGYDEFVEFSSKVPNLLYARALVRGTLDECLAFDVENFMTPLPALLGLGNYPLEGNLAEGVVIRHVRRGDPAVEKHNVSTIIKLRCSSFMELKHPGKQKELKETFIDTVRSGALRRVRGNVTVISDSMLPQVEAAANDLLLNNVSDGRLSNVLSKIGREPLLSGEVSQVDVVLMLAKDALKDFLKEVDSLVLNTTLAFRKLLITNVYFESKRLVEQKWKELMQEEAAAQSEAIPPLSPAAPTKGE
Protein Tat, sequence (P04608 whole entry): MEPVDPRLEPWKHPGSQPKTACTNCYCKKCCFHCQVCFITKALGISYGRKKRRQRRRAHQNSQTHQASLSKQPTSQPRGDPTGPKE
E3 ubiquitin-protein ligase UHRF1, sequence (Q96T88 whole entry, the tested form may be a part): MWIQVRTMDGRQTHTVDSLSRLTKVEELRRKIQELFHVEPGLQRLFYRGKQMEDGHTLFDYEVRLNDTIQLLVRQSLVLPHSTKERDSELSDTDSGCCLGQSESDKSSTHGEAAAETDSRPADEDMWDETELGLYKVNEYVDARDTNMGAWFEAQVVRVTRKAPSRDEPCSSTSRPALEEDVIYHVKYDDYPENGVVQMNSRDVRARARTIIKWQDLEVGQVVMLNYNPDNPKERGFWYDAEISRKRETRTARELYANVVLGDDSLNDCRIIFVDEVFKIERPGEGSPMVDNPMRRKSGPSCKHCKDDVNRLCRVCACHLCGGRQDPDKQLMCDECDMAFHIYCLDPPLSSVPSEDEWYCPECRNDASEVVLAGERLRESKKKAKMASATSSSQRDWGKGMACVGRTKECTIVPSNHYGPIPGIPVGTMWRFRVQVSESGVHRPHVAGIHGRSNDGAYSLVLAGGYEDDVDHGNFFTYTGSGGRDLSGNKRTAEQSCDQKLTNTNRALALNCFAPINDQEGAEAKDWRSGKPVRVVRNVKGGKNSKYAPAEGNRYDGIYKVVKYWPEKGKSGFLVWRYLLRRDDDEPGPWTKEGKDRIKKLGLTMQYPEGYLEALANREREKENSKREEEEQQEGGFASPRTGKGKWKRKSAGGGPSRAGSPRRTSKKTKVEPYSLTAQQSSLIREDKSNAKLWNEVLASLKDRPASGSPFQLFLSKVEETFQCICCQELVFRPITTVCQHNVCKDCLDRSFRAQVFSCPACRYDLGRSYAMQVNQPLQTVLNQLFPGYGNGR
Trypsin, sequence (P00761 whole entry): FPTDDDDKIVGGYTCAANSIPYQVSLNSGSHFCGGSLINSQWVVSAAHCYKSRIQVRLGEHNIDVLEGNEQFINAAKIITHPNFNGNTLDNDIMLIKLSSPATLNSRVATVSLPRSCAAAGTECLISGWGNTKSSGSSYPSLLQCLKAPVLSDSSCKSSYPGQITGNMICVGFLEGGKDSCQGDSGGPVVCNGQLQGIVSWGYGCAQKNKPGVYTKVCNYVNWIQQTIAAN

COC1=C(NS(=O)(=O)c2ccc(Br)cc2)C(=O)c2ccccc2C1=O
AC50 [1]: > 70 µM (inactive)
AC50 [2]: 34.9 µM (active)
AC50 [3]: 10.4 µM (active)
AC50 [4]: 34.9 µM (active)
AC50 [5]: 12 µM (active)
AC50 [6]: > 70 µM (inactive)
AC50 [7]: 21.5 µM (active)
AC50 [8]: > 70 µM (inactive)
AC50 [9]: > 70 µM (inactive)
AC50 [10]: 14.8 µM (active)
AC50 [11]: > 70 µM (inactive)
AC50 [12]: 19.8 µM (active)
AC50 [13]: 38.3 µM (active)

C#CCOCCOCCOCCNc1nc(N2CCN(C(=O)[C@H](CCCCN)n3cc([C@@H](N)CC(C)C)nn3)CC2)nc(N2CCN(C(=O)[C@H](Cc3cc4ccccc4[nH]3)n3cc([C@@H](N)CC(C)C)nn3)CC2)n1
IC50 [14]: > 96.6 µM (inactive)

Cc1ccc(-c2cc(-c3ccccc3)cc(-c3ccccc3)[n+]2-c2ccccc2C(=O)O)cc1.[O-][Cl+3]([O-])([O-])[O-]
IC50 [15]: 18.9 µM (inactive)
EC50 [16]: 3.23 µM (inconclusive)
EC50 [17]: > 160 µM (inactive)

COc1ccccc1-c1cc(NCCCN2CCCCC2)c2ccccc2n1
IC50 [18]: 7.13 µM (active)
IC50 [19]: 2.87 µM (active)

Cc1oc2c(CN3CCCC3)c(O)ccc2c(=O)c1-c1ccc(Br)cc1
EC50 (Kallikrein-7): > 69.5 µM (inactive)
AC50 (CAAX prenyl protease 2 [20]): 10 µM (active)
AC50 (Trypsin): 9.06 µM (active)
AC50 (CAAX prenyl protease 2 [21]): 12 µM (active)

O=C(NCCN1CCN(c2ccccc2)CC1)C1CCN(S(=O)(=O)c2cccc3nonc23)CC1
IC50 (Protein Tat): > 100 µM (active)

COc1cccc(C#Cc2ccc([C@@H]3[C@@H](CO)N4C(=O)CN(C(=O)Cc5ccccc5)C[C@@H]34)cc2)c1
AC50 [22]: 4.88 µM (active)
